The text below walks through data of patent publication US10041044B2, “Age-associated clonal hematopoiesis accelerates cardio-metabolic disease development” (TRUSTEES OF BOSTON UNIVERSITY, priority 2016, dated 2018).

Assay [1] concerns atherosclerotic plaque in Ldlr−/− BMT mice. Put plainly: Aortic root plaque size in high fat/high cholesterol diet-fed competitive-BMT Ldlr−/− mice. It counts as in vivo. Conditions: continuous infusion 5 mg/kg/day via subcutaneous osmotic pumps. As for the experimental part:
Aortic root plaque size in high fat/high cholesterol diet-fed 10% KO-BMT mice and 10% WT-BMT. […] Representative images of hematoxylin/eosin-stained sections are shown; plaques are delineated by discontinuous lines (scale bar: 100 μm). Statistical significance was evaluated by 2-way ANOVA with Tukey multiple comparison test (*p<0.05, […]).
Lethally irradiated Ldlr−/− recipients were transplanted with suspensions of BM cells containing 10% CD45.2+ Tet2−/− cells and 90% CD45.1+ Tet2+/+ cells (10% KO-BMT mice), or 10% CD45.2+ Tet2+/+ cells and 90% CD45.1+ Tet2+/+ cells (10% WT-BMT mice) (Fig. S1). BM cells were isolated from femurs and tibias of donor mice after euthanasia. Donor CD45.2+ cells were obtained from Tet2+/+ or −/− littermates; donor CD45.1+ cells were obtained from Pep Boy mice. Recipient Ldlr−/− mice were irradiated in a pie cage (Braintree Scientific) to limit mobility and ensure equal dose of irradiation and were exposed to two radiation doses of 550 rad three hours apart using an X-RAD 320 Biological Irradiator. After the second irradiation, each recipient mouse was injected with 10^7 BM cells i.v. Sterilized caging, food and water were provided during the first 14 days post-transplant and water was supplemented with antibiotics (Sulfatrim). […]
Mice were euthanized and aortas were removed after in situ perfusion with phosphate-buffered saline (PBS) injected through the left ventricle of the heart. […] All histological sections comprising the aortic root as determined by the location of the aortic valve leaflets were cut at a thickness of 6 μm. An operator who was blinded to genotype quantified plaque size in aortic root sections by computer-assisted morphometric analysis of microscopy images acquired on a KEYENCE BZ-9000 microscope. For each mouse, atherosclerosis plaque size in aortic root cross-sections was calculated as the average of 5 independent sections separated by ˜18 μm.

For assay [2], the system named is heart failure by pressure overload (TAC) in mice. Briefly: Pressure overload (TAC) heart failure in BMT mice. It counts as in vivo. The source says: 22A. Scheme of the experimental study. Mice underwent partial (10%) bone marrow reconstitution with Tet2-deficient cells or WT cells following lethal irradiation. After 8 weeks of recovery, mice underwent permanent TAC surgery to produce pressure overload on the heart. 22B. […] 22C. […] 22D. […] LVPWTd=left ventricle posterior wall thickness at diastole, FS=fractional shortening. 22E.
(§1) Heart failure was induced in C57/B16 mice by pressure overload, achieved by transverse aortic constriction (TAC), or by chronic ischemia, induced by the permanent ligation of the left anterior descending (LAD) artery (FIGS. 19, 20). In both models, Tet2-deficient hematopoietic cells were used to partially reconstitute the bone marrow of lethally irradiated mice, leading to their clonal expansion. Alternatively, Tet2 was specifically ablated in myeloid cells using Cre recombinase expressed from the LysM promoter. In mice, undergoing LAD ligation, Tet2-deficiency led to worsened cardiac remodeling and function regardless of the means of Tet2 ablation. In mice undergoing TAC, Tet2-deficiency led to greater hypertrophy and systolic dysfunction regardless of the means of Tet2 ablation.

In assay [3] the test system is heart failure by chronic ischemia (LAD ligation) in mice. Put plainly: Post-infarction remodeling after permanent LAD ligation in BMT mice. It counts as in vivo.
Excerpt: 21A. Scheme of the experimental study. Mice underwent partial (10%) bone marrow reconstitution with Tet2-deficient cells or WT cells following lethal irradiation. After 8 weeks of recovery, mice underwent permanent LAD ligation. PBS or MCC-950 infusion by osmotic pump was initiated 1 week after LAD ligation for 4 weeks. 21B. […] 21C.
as §1

The next assay concerns IL-6 expression. Briefly: qRT-PCR of IL-6 expression in LPS/IFNγ-treated peritoneal macrophages. To be noted: 8 hours 10 ng/mL LPS and 2 ng/ml IFNγ; 0.5 μM TSA. Format: cell-based, mouse. On the procedure: (§2) 14A. qRT-PCR analysis of IL-1β expression in peritoneal macrophages isolated from Tet2−/− or +/+ mice (n=3 mice/genotype) and treated for 8 hours with 10 ng/mL LPS and 2 ng/ml IFNγ in the absence or presence of 0.5 μM Trichostatin A (TSA). 14B. ChIP analysis of H3 acetylation in the IL-1β promoter of macrophages isolated from Tet2−/− or +/+ mice (n=6/genotype) after 10 hours of LPS/IFNγ treatment. 14C. qRT-PCR analysis of IL-6 expression in peritoneal macrophages isolated from Tet2−/−/ mice or +/+ controls (n=3 mice/genotype) and treated for 8 hours with 10 ng/mL LPS and 2 ng/ml IFNγ in the absence or presence of 0.5 μM TSA. 14D. […]
(§3) Thioglycollate-elicited macrophages were obtained from the peritoneal cavity of mice 4 days after intraperitoneal injection of 1 ml of aged 4% Brewer's thioglycollate broth (BD Difco). […] Cell cycle progression and apoptosis of cultured macrophages was evaluated by flow cytometry analysis of DNA content. […] For analysis of apoptosis induced by treatment with 7-ketocholesterol (Sigma), hypodiploid (SubG1) cells were quantified using with FLOWJO Software. Uptake of fluorescent dil-conjugated oxidized LDL (Alfa Aesar) was evaluated by flow cytometry analysis. […]
(§4) Total RNA from tissues and cultured cells was isolated using QIAZOL reagent and RNEASY kits (QIAGEN). […] Results were analyzed with the ΔΔCt method. […]

Another assay has as its system TNF expression. Briefly: qRT-PCR of TNF expression in LPS/IFNγ-treated peritoneal macrophages. Format: cell-based, mouse. To be noted: HDAC inhibition with TSA in macrophages.
Excerpt: Although many details of its role in regulating chromatin architecture remain unknown, Tet2 has emerged as a multifaceted epigenetic regulator that is able to facilitate both transcription activation and repression depending on the molecular and cellular context. Given that Tet2 loss-of-function is associated with increased IL-1β gene expression, experiments were focused on potential mechanisms of Tet2-mediated transcriptional repression in macrophages.
as §3, with “Difco). Macrophages were allowed to adhere for 4 hours and cultured in RPMI medium supplemented with antibiotics and 10% FBS (PERFORMANCE PLUS FBS, Gibco).” for “Difco).”
as §4
A general note: Real-time PCR tracks product formation cycle by cycle.

A further assay concerns IL-1β expression. Briefly: qRT-PCR of IL-1β expression in LPS/IFNγ-treated peritoneal macrophages. Format: cell-based, mouse. To be noted: 8 hours 10 ng/mL LPS and 2 ng/ml IFNγ; 0.5 μM TSA. On the procedure: as §2, §3, §4
Where [4] appears, read: mice reconstituted with Tet2-knockout bone marrow, after pressure overload.

For the compound `CC(C)(O)c1coc(S(=O)(=O)NC(=O)Nc2c3c(cc4c2CCC4)CCC3)c1` [MCC950], in assay [1] (10% KO-BMT mice), the “decrease of atherosclerotic plaque size” value is on record as roughly 50%. Further, in assay [1] (10% WT-BMT controls, nonstatistically significant), the “reduction of atherosclerotic plaque size” value is 20%. Moreover, in assay [1], the “difference in aortic plaque size between chimeric (10% KO-BMT) and nonchimeric control mice” value is on record as “eliminated”. The “development of heart failure” value in assay [2] (TAC model (FIG. 22)) was “protected against the development of heart failure”. In assay [2] (after pressure overload), the “difference in cardiac fibrosis between Tet2-deficient and WT conditions” value is reported as “eliminates the difference in this parameter”; the “difference in myocyte CSA between Tet2-deficient and WT conditions” value is on record as “eliminates the difference in this parameters”; the “differences in HW and LW between Tet2-deficient and WT conditions” value was “eliminates the differences in these parameters”; the “differences in echocardiographic parameters between Tet2-deficient and WT conditions” value was “eliminates the differences in the echocardiographic parameters”. The “heart weight (HW) and wet lung weight (LW) adjusted by tibia length (TL)” value in assay [2] (after pressure overload, both strains of mice) was “ameliorates the increase of cardiac and lung mass”. Moreover, the “myocyte cross-sectional area (CSA)” value in assay [2] (after pressure overload, wild type and hematopoietic Tet2-KO mice) is reported as “inhibits hypertrophy”. In assay [2] (setting [4]), the “cardiac fibrosis (Picro sirius staining)” value was “can be reversed” and the “deterioration of cardiac function (echocardiographic parameters, LVPWTd, FS)” value is given as “can be reversed”. In assay [3] (5 week time point post-LAD ligation), the “differences in cardiac parameters between Tet2-deficient and WT conditions” value is given as “eliminates the differences in cardiac parameters”. Moreover, the “development of heart failure” value in assay [3] (LAD ligation model (FIG. 21)) was “protected against the development of heart failure”. In addition, the “cardiac remodeling, echocardiographic ejection fraction (EF)” value in assay [3] (Tet2-KO and wild-type bone marrow, osmotic pump infusion from 1 week after LAD ligation for 4 weeks) is reported as “protects against adverse cardiac remodeling”. Besides, the “differences in cell size between Tet2-deficient and WT conditions” value in assay [3] (after LAD ligation) is reported as “eliminates the differences in cell size”. Also, the “cardiac myocyte hypertrophy after LAD ligation” value in assay [3] (mice reconstituted with Tet2-KO and wild-type bone marrow) was “inhibits the increase in cardiac myocyte hypertrophy”.

On to `CC(/C=C/C(=O)NO)=C\[C@@H](C)C(=O)c1ccc(N(C)C)cc1` [Trichostatin A], for which, in the assay on IL-6 expression, the “IL-6 expression differences between genotypes” value is given as “did not affect differences between genotypes” and the “IL-6 transcript expression (qRT-PCR)” value is recorded as “reduced transcript expression”. In addition, the TNF transcript expression result with TNF expression is “reduced transcript expression”. Also, in the assay with IL-1β expression, the “IL-1β expression (qRT-PCR)” value was “increased IL-1β expression”; the “IL-1β expression differences between Tet2-deficient and WT genotypes” value is recorded as “abolished expression differences”.
